Measurements as given in patent publication US9676777B2, “Compounds useful for producing an optically active diazabicyclooctane compound” (Meiji Seika Pharma Co., Ltd., priority 2010, dated 2017).

What was measured:
[1] = system: P. aeruginosa PAO1 variant, which constitutively expresses AmpC; test: Combinatorial antibacterial activity (MIC of PIPC) in combination with test compound, agar plate dilution; type: cell-based, Pseudomonas aeruginosa; conditions: for MIC: Pseudomonas aeruginosa, PAO1; for effect of the compound in combination with an antibiotic: result in words
Experimental: The biological activity of the above-mentioned compounds represented by formulae (H) and (s) can be measured as follows. Specifically, an enzyme inhibitory activity (IC50 value) against AmpC enzyme which is a class C β-lactamase was determined using nitrocephin as a substrate to check whether or not the compounds had the inhibitory activity and compare the activities of them. Further, using constitutive AmpC producing Pseudomonas aeruginosa, a combined antimicrobial activity (MIC) was measured when using Piperacillin (PIPC) as an antibiotic and the compound of formula (H) or (s) in combination to check whether or not the antimicrobial activity of PIPC could be restored.
The combinatorial effect of the test compound with a β-lactam agent against bacteria was evaluated using AmpC constitutive expression strain selected from P. aeruginosa PAO1 through agent exposure. Using piperacillin (PIPC, Sigma-Aldrich) as a β-lactam agent, measurement was conducted by agar plate dilution process in which minimal inhibitory concentration (MIC) of PIPC is based on Clinical and Laboratory Standards Institute (CLSI process). That is, an agara plate containing 4 μg/mL (final concentration) of test compound and PIPC at each concentration in Mueller-Hinton agar (Becton, Dickinson and Company) was made, and bacteria cultured overnight in cation-adjusted Muller-Hinton broth (Becton, Dickinson and Company) were adjusted in the same medium so as to have 10^4 CFU/spot and inoculated on a plate containing an agent. This plate containing an agent was cultured overnight at 35° C., and the minimum agent concentration in which no growth of bacteria is observed was determined to be MIC.

AmpC = AmpC (Pseudomonas aeruginosa (strain ATCC 15692 / DSM 22644 / CIP 104116 / JCM 14847 / LMG 12228 / 1C / PRS 101 / PAO1), UniProt P24735); type: biochemical; conditions: result in words
Experimental: The biological activity of the above-mentioned compounds represented by formulae (H) and (s) can be measured as follows. […] Further, using constitutive AmpC producing Pseudomonas aeruginosa, a combined antimicrobial activity (MIC) was measured when using Piperacillin (PIPC) as an antibiotic and the compound of formula (H) or (s) in combination to check whether or not the antimicrobial activity of PIPC could be restored.
Using P. aeruginosa PAO1 genome as a template, a DNA for encoding an AmpC β-lactamase domain excluding a signal peptide was amplified with PCR. This PCR product was incorporated into pET-28b(+)vector (Merck), introduced into E. coli BL21 (Merck), and, under induction of 1 mM isopropyl-β-D-(−)-thiogalactopyranoside (Nacalai Tesque), cultured overnight at 20° C. to express AmpC. After the bacterial cell was collected, AmpC was purified from the cell extract obtained by ultrasonic treatment, using CM Sepharose Fast Flow (GE Healthcare) and HiTrap Heparin HP (GE Healthcare) at 4° C.

Chain of AmpC (P24735 27-397): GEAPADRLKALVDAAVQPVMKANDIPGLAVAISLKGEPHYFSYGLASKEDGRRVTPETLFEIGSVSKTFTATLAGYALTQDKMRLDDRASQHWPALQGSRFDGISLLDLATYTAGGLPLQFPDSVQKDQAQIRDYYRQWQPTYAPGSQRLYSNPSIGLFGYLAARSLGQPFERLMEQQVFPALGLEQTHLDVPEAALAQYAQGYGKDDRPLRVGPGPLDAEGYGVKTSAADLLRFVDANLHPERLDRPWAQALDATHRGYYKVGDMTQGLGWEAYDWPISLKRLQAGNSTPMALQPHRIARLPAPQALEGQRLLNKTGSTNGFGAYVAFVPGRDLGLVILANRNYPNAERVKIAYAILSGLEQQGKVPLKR

Row | SMILES | MIC [1] [µg/mL] | effect of the compound in combination with an antibiotic [1] | β-lactamase enzyme inhibitory activity (AmpC)
1 | NC(=O)[C@H]1CC[C@H]2CN1C(=O)N2OS(=O)(=O)[O-].[Na+] [Example 24, (2R,5S)-1,6-Diazabicyclo[3.2.1]octane-2-carboxamide, 7-oxo-6-(sulfoxy)-monosodium salt] | 64 | exhibited no activity | exhibited no activity
2 | C[C@]1(Cn2ccnn2)[C@H](C(=O)[O-])N2C(=O)C[C@H]2S1(=O)=O.[Na+] [TAZ, Tazobactam, reference compound] | 64 | – | –
3 | NC(=O)[C@@H]1CC[C@@H]2CN1C(=O)N2OS(=O)(=O)[O-].[Na+] [Example 23, (2S,5R)-1,6-Diazabicyclo[3.2.1]octane-2-carboxamide, 7-oxo-6-(sulfoxy)-monosodium salt] | 4 | exhibited the activities | exhibited the activities
